Reference: PubChem BioAssay (NCI)
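Where inhibition never reached the appropriate level, the endpoint shown equals the highest concentration tested. Otherwise, values were interpolated linearly from a five-concentration, 48-hour dose response in 96-well plates. Here, GI50 denotes the concentration required for 50% inhibition of growth. At the TGI there is no net growth.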

Columns and labels:
Experiment in all cases: NCI-60 cell line screen, 48 h
A549 NSCLC = tested on: A549 NSCLC
MALME-3M melanoma = tested on: MALME-3M melanoma
SK-MEL-5 melanoma = tested on: SK-MEL-5 melanoma
SNB-19 CNS = tested on: SNB-19 CNS
CAKI-1 renal = tested on: CAKI-1 renal
K-562 leukemia = tested on: K-562 leukemia
SF-539 CNS = tested on: SF-539 CNS
SK-OV-3 ovarian = tested on: SK-OV-3 ovarian
SR leukemia = tested on: SR leukemia
HS 578T breast = tested on: HS 578T breast

Compound	TGI (A549 NSCLC) [µM]	TGI (MALME-3M melanoma) [µM]	TGI (SK-MEL-5 melanoma) [µM]	TGI (SNB-19 CNS) [µM]	TGI (CAKI-1 renal) [µM]	TGI (K-562 leukemia) [µM]	TGI (SF-539 CNS) [µM]	TGI (SK-OV-3 ovarian) [µM]	TGI (SR leukemia) [µM]	GI50 (A549 NSCLC) [µM]	GI50 (CAKI-1 renal) [µM]	GI50 (HS 578T breast) [µM]	TGI (HS 578T breast) [µM]	GI50 (K-562 leukemia) [µM]	GI50 (MALME-3M melanoma) [µM]	GI50 (SF-539 CNS) [µM]	GI50 (SK-MEL-5 melanoma) [µM]	GI50 (SK-OV-3 ovarian) [µM]	GI50 (SNB-19 CNS) [µM]
Cc1ccc(NC(=O)CCC/C(CC(=O)c2ccc(Br)cc2)=N/NC(=O)CC#N)cc1	> 100	> 100	> 100	> 100	–	–	–	–	–	–	–	–	–	–	–	–	–	–	–
C[C@]12CC[C@H](OCCC#N)CC1=CC[C@@H]1C2CC[C@]2(C)/C(=N/OCCC#N)CCC12 (stereo partly specified)	> 100	> 100	> 100	97.9	> 100	> 100	> 100	> 100	> 100	–	–	–	–	–	–	–	–	–	–
Cc1cccc(C)c1NC(=O)CCc1nnc2s/c(=C\c3ccc(Cl)cc3)c(=O)n12	> 100	> 100	> 100	> 100	> 100	> 100	> 100	> 100	> 100	–	–	–	–	–	–	–	–	–	–
Cc1ccc(-c2nc(N)nc3c2nnn3Cc2cccc(CO[C@H]3CCOC3)n2)o1	> 100	> 100	> 100	> 100	> 100	> 100	> 100	> 100	–	> 100	> 100	> 100	> 100	> 100	> 100	> 100	53.6	> 100	> 100
CN(C)CC/C(=N\Nc1ccccc1)c1ccccc1	> 100	25.6	35.6	> 100	11.2	7.54	32.6	34.7	> 100	–	–	–	–	–	–	–	–	–	–
O=C1c2ccccc2C2(O)NC(=S)N(c3ccccc3)C12O (stereo unspecified)	> 100	> 100	–	> 100	> 100	> 100	> 100	> 100	> 100	–	–	–	–	–	–	–	–	–	–
CCC[CH2][Sn]([CH2]CCC)([O]C(=O)C(N)CSC)[O]C(=O)C(N)CSC (stereo unspecified)	> 79.7	48.7	25	24.6	17.4	7.81	26.7	–	–	27.7	5	–	–	0.846	7.19	13.3	11.6	–	12.1
COc1cc(C(=O)C/C(CCC(=O)Nc2ccc(Cl)cc2C)=N/NC(=O)C(N)=O)ccc1O	> 100	> 100	> 100	> 100	> 100	> 100	> 100	> 100	–	–	–	–	–	–	–	–	–	–	–
CC(=O)N/C(=C\c1cccc([N+](=O)[O-])c1)c1nc2c3c(ccc2[nH]1)C(=O)c1ccccc1C3=O	> 100	> 100	> 100	> 100	> 100	> 100	> 100	> 100	> 100	–	–	–	–	–	–	–	–	–	–
COc1ccc2cc3[n+](cc2c1OC)CCc1cc(O)c(O)cc1-3	> 100	> 100	> 100	> 100	> 100	> 100	> 100	> 100	–	–	–	–	–	–	–	–	–	–	–
